Measured values taken from article PMC11606603, “The membrane domains of mammalian adenylyl cyclases are lipid receptors” (eLife, 2024).
Where “and” joins values, the source holds several entries; their conditions need not be identical. Identical values can stand only once.

Assays:
Type in all cases: biochemical
mAC1 = target: T1, mAC1 (Homo sapiens, UniProt Q08828); assay: AC assay, Gsα-stimulated mAC1 in membranes from transfected HEK293 cells; details: for activity [%] (100% = 300nM Gsα stimulation): mAC1
T1 construct: Human mAC genes were from GenScript and fitted with a C-terminal FLAG-tag; FLAG (C); made in house; host or cells: HEK293, permanently transfected; membrane preparation
Procedure, shortened: (§1)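 Human AC, FLAG-tagged, stably expressed in HEK293; membranes used as enzyme. 1 mM ATP, 2 mM MgCl2, ATP regeneration, MOPS pH 7.5; cAMP kit readout.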

mAC5 = target: T2, mAC5 (Homo sapiens, UniProt O95622); assay: AC assay, Gsα-stimulated mAC5 in membranes from transfected HEK293 cells; details: for activity [%] (100% = 300nM Gsα stimulation): mAC5
T2 construct: Human mAC genes were from GenScript and fitted with a C-terminal FLAG-tag; FLAG (C); made in house; host or cells: HEK293, permanently transfected; membrane preparation
Procedure, shortened: as §1

mAC6 = target: T3, mAC6 (Homo sapiens, UniProt O43306); assay: AC assay, Gsα-stimulated mAC6 in membranes from transfected HEK293 cells; details: for activity [%] (100% = 300nM Gsα stimulation): mAC6
T3 construct: Human mAC genes were from GenScript and fitted with a C-terminal FLAG-tag; FLAG (C); made in house; host or cells: HEK293, permanently transfected; membrane preparation
Procedure, shortened: as §1

mAC4 = target: T4, mAC4 (Homo sapiens, UniProt Q8NFM4); assay: AC assay, Gsα-stimulated mAC4 in membranes from transfected HEK293 cells; details: for activity [%] (100% = 300nM Gsα stimulation): mAC4
T4 construct: Human mAC genes were from GenScript and fitted with a C-terminal FLAG-tag; FLAG (C); made in house; host or cells: HEK293, permanently transfected; membrane preparation
T4 sequence (Q8NFM4 1-1077): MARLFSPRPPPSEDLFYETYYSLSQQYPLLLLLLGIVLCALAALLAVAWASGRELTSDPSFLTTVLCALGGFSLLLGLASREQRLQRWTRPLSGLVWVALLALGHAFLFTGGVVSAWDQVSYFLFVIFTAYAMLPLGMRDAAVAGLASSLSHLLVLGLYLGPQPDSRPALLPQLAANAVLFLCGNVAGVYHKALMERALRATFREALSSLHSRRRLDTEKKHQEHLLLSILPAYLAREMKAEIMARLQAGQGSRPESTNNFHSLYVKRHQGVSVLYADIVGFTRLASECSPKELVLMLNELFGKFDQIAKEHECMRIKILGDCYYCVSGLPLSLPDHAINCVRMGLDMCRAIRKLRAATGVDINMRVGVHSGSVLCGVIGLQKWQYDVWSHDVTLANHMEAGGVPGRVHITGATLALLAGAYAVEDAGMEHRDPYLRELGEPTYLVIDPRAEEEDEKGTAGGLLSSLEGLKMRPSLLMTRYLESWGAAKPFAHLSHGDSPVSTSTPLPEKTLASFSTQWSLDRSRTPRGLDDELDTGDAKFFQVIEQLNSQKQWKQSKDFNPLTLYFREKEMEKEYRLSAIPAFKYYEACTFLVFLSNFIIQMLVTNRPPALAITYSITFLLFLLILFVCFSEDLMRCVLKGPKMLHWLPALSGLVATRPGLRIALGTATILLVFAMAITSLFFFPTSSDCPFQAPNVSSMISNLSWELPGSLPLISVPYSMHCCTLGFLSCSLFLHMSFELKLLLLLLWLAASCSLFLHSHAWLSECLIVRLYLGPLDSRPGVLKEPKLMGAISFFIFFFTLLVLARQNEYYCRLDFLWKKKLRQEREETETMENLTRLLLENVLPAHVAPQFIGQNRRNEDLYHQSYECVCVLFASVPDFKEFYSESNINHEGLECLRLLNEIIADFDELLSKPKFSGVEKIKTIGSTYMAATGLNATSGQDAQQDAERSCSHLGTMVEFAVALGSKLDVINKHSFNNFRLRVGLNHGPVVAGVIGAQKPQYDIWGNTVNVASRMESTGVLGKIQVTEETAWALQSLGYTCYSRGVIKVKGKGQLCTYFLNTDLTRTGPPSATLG
Procedure, shortened: as §1

[1] = attenuation of 300 nM Gsα-stimulated activity

T3 sequence (O43306 whole entry): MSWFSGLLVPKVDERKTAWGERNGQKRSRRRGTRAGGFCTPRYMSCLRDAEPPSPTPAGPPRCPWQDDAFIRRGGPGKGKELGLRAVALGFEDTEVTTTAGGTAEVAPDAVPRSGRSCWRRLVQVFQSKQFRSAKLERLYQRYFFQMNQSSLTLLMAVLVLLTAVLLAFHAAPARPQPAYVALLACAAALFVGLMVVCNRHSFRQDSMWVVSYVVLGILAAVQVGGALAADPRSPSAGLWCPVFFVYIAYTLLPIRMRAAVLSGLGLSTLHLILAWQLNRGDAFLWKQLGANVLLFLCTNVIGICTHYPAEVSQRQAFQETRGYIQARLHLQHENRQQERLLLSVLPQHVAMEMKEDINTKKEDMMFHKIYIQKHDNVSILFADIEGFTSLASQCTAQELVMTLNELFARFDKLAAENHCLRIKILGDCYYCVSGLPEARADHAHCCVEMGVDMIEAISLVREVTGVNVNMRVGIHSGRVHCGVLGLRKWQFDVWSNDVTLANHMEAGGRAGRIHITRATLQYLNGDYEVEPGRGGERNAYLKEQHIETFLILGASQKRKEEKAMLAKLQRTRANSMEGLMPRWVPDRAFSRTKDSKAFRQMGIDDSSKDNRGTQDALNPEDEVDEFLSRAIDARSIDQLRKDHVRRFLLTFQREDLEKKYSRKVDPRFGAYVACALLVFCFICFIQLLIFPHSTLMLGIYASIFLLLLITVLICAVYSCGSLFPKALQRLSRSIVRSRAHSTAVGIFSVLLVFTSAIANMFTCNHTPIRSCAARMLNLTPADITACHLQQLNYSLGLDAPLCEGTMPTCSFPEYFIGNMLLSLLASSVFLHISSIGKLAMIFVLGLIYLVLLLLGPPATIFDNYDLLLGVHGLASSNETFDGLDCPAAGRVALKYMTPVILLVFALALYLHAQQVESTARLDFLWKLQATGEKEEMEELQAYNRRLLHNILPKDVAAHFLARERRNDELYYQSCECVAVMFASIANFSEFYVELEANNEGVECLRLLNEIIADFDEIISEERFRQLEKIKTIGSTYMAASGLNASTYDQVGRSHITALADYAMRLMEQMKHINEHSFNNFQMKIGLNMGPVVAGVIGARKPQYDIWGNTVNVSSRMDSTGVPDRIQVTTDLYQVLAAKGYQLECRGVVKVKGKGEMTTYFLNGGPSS
T1 sequence (Q08828 whole entry): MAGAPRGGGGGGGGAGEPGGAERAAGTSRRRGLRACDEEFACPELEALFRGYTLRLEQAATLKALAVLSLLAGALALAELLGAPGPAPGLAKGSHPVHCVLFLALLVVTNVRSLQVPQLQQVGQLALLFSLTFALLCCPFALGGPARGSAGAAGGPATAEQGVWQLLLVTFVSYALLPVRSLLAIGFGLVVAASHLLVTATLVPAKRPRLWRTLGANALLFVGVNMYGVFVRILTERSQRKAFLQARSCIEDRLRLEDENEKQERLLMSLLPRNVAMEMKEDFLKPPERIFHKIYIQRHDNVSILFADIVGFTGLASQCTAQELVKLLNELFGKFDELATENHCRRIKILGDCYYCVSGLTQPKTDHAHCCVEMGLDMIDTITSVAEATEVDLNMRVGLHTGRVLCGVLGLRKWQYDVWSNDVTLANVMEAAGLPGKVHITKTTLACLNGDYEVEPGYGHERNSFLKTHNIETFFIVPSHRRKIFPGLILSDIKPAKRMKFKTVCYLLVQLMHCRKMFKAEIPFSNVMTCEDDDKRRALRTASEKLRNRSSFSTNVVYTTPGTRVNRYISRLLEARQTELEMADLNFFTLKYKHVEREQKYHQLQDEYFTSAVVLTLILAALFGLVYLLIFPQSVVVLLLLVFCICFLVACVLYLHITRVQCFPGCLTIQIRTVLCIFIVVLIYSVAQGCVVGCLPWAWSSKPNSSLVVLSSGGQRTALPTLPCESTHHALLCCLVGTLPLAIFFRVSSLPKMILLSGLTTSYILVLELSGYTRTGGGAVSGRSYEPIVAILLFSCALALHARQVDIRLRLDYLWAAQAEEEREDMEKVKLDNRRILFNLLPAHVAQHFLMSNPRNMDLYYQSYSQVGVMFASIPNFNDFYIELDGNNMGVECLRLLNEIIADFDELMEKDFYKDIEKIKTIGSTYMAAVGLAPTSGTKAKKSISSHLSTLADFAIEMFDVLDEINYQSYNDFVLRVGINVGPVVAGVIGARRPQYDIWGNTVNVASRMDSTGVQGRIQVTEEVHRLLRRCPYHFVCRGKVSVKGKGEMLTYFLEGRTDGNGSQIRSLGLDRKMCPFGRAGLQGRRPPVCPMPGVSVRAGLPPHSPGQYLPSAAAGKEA
T2 sequence (O95622 whole entry): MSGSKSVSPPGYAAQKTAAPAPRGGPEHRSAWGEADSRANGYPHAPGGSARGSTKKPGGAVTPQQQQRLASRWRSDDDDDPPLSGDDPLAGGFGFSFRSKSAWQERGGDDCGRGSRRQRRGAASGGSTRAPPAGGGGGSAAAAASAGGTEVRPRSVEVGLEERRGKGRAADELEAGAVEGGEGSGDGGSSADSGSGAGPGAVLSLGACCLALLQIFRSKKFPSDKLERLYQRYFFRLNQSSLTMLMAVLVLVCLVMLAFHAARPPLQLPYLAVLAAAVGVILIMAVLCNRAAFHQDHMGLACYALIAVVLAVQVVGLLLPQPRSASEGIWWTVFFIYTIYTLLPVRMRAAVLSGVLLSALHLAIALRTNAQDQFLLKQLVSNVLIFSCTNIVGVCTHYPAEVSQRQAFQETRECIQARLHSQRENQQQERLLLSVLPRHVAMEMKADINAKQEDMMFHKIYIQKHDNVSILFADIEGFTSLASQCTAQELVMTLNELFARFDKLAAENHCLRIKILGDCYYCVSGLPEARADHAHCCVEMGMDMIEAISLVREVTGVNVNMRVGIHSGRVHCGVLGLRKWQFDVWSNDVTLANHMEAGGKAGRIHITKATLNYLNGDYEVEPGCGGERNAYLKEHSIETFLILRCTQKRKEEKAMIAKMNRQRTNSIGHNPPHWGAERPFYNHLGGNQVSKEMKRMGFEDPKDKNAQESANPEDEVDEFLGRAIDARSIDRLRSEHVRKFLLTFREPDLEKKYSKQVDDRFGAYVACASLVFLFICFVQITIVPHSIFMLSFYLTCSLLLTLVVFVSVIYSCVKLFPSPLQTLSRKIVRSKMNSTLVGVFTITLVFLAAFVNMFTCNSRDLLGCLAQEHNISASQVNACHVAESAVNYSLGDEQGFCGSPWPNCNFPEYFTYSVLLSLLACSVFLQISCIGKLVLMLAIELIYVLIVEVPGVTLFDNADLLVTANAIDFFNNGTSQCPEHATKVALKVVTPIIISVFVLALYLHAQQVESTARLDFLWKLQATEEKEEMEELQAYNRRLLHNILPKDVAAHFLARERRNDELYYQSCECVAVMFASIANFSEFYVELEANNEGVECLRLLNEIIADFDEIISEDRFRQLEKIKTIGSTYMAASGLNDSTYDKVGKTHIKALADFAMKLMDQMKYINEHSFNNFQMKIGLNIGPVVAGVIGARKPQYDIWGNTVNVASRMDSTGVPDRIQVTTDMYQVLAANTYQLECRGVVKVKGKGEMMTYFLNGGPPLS

CCCCC/C=C\C/C=C\C/C=C\C/C=C\CCCC(=O)NCCO [Anandamide, arachidonoylethanolamide]
IC50 (mAC1): 29 µM | activity [%] (100% = 300nM Gsα stimulation) (mAC1; Anandamide 0.1 µM): 100% | activity [%] (100% = 300nM Gsα stimulation) (mAC1; Anandamide 1 µM): 81% and 83% and 116% and 100% and 88% | activity [%] (100% = 300nM Gsα stimulation) (mAC1; Anandamide 3 µM): 98% and 83% and 114% and 101% and 97% | activity [%] (100% = 300nM Gsα stimulation) (mAC1; Anandamide 10 µM): 92% and 80% and 101% and 94% and 81% | activity [%] (100% = 300nM Gsα stimulation) (mAC1; Anandamide 30 µM): 41% and 63% and 74% and 78% and 71% | activity [%] (100% = 300nM Gsα stimulation) (mAC1; Anandamide 60 µM): 39% and 40% and 53% and 59% and 57% | IC50 (mAC5; [1]): 42 µM | activity [%] (100% = 300nM Gsα stimulation) (mAC5; 100µM Anandamide concentration, Figure 9 D): 55% and 58% and 70% and 40% and 56% and 45% and 65% and 60% | activity [%] (100% = 300nM Gsα stimulation) (mAC5; Anandamide 0.1 µM): 100% | activity [%] (100% = 300nM Gsα stimulation) (mAC5; Anandamide 0.5 µM): 96% and 115% and 93% and 114% and 127% | activity [%] (100% = 300nM Gsα stimulation) (mAC5; Anandamide 3 µM): 122% and 77% | activity [%] (100% = 300nM Gsα stimulation) (mAC5; Anandamide 8 µM): 101% | activity [%] (100% = 300nM Gsα stimulation) (mAC5; Anandamide 10 µM): 99% | activity [%] (100% = 300nM Gsα stimulation) (mAC5; Anandamide 35 µM): 78% and 77% and 119% | activity [%] (100% = 300nM Gsα stimulation) (mAC5; Anandamide 40 µM): 58% and 74% | activity [%] (100% = 300nM Gsα stimulation) (mAC5; Anandamide 80 µM): 47% | IC50 (mAC6; [1]): 23 µM and 22 µM | activity [%] (100% = 300nM Gsα stimulation) (mAC6; Anandamide 0.1 µM): 100% | activity [%] (100% = 300nM Gsα stimulation) (mAC6; Anandamide 0.5 µM): 100% and 94% | activity [%] (100% = 300nM Gsα stimulation) (mAC6; Anandamide 1 µM): 89% | activity [%] (100% = 300nM Gsα stimulation) (mAC6; Anandamide 20 µM): 89% | activity [%] (100% = 300nM Gsα stimulation) (mAC6; Anandamide 30 µM): 60% and 59% and 57% and 63% and 40% | activity [%] (100% = 300nM Gsα stimulation) (mAC6; Anandamide 35 µM): 73% | activity [%] (100% = 300nM Gsα stimulation) (mAC6; Anandamide 100 µM): 26% | Effect of anandamide on Gsα-stimulated mAC4 (mAC4; concentration–response, higher concentrations, in words): distinctly not | activity [%] (100% = 300nM Gsα stimulation) (mAC4; Anandamide 0.1 µM): 100% | activity [%] (100% = 300nM Gsα stimulation) (mAC4; Anandamide 3 µM): 86% and 113% and 96% and 121% and 82% | activity [%] (100% = 300nM Gsα stimulation) (mAC4; Anandamide 30 µM): 107%
